The values that follow are results of earlier work, collected in patent publication US6660299B2, “Modified release pharmaceutical formulation comprising amoxycillin” (Beecham Pharmaceuticals Limited, priority 1999, dated 2003).

Structures are written as SMILES.

The conditions of this data set: in vivo.

Turning to `CC1(C)S[C@@H]2[C@H](NC(=O)[C@H](N)c3ccc(O)cc3)C(=O)N2[C@H]1C(=O)O` [amoxycillin], the excretion half-life was 1.3 h.
